Laboratory results: patent US12692259B2, “Morpholine-containing and piperazine-containing CXCR4 modulators and uses related thereto” (Emory University, priority 2021, dated 2026)
pIC50: −log10 of the molar value.

Legend:
[1] = biological target: T1, CXCR4 (Homo sapiens, UniProt P61073); assay: Calcium flux assay (antagonist mode, SDF-1α challenge); type: cell-based; set-up: Eurofins or Bristol Myers Squibb (contract assay); conditions: read-out: CXCR4 Ca^+2 Flux IC50
Method: Calcium flux assay was performed by Eurofins or Bristol Myers Squibb. The method used by Eurofins is described below.
Compound plate preparation: Vehicle controls and positive controls were prepared to ensure all assays were properly controlled. All wells were prepared using the Eurofins Discovery Services GPCRProfiler® Assay Buffer. The GPCRProfiler® Assay Buffer was a modified Hanks Balanced Salt Solution (HBSS) where HBSS was supplemented to contain 20 mM HEPES and 2.5 mM Probenecid at pH 7.4.
Agonist assay (first addition): Compound(s) supplied were plated in duplicate for each concentration assayed. During the agonist assay, the concentration(s) reflects accommodation for the dilution of compound during the antagonist assay. Please see below for further details. […] The reference agonist for each GPCR was included at Emax (the concentration where the reference agonist elicited a maximal response). The agonist assay was conducted on a FLIPR^TETRA instrument where the test compound(s), vehicle controls, and reference agonist were added to the assay plate after a fluorescence/luminescence baseline was established. The agonist assay was a total of 180 seconds and was used to assess each compound's ability to activate each GPCR assayed. Upon completion of the three minute agonist assay, the assay plate was incubated at 25° C. for a further two minutes. After the incubation period the antagonist assay was initiated.
The antagonist assay was conducted using the same assay plate that was used for the agonist assay. The antagonist assay was conducted on a FLIPR^TETRA instrument where vehicle controls and challenge concentration of reference agonist were added to appropriate wells. The antagonist assay was a total of 180 seconds and was used to assess each compound's ability to inhibit each GPCR assayed.
Data Processing—All plates were subjected to appropriate baseline corrections. Once baseline corrections were processed, maximum fluorescence/luminescence values were exported, and data manipulated to calculate percentage activation and percentage inhibition. […] Data manipulation calculation is as followed: ((Max RLU)−(Baseline Avg.))/((Positive Avg.)−(Baseline Avg.)).

[2] = biological target: T2, CYP2D6 (Homo sapiens, UniProt P10635); assay: Fluorometric CYP450 inhibition assay, CYP2D6; type: in vitro ADME; conditions: read-out: CYP450 IC50 (μM) 2D6
T2 construct: purchased Corning; host or cells: insect cells (microsomes)
T2 sequence (P10635 whole entry): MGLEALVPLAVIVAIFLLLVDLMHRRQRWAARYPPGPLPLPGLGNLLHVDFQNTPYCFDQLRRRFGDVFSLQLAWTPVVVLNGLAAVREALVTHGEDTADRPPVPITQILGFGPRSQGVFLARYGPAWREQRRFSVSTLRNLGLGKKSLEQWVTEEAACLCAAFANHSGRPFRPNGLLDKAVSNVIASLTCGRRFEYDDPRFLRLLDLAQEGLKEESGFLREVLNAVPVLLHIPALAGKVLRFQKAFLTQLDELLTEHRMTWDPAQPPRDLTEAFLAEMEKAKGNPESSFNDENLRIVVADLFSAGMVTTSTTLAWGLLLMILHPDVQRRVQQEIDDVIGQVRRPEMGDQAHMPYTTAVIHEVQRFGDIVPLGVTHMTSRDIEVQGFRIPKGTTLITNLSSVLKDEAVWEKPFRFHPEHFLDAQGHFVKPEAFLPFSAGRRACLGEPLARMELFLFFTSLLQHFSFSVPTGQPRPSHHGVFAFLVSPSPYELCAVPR
Method: The CYP450 inhibition assays utilized microsomes from insect cells expressing human recombinant individual cDNA-expressed CYP isoforms 3A4 and 2D6, as well as the fluorogenic probe that produces fluorescent metabolite. Standard inhibitors were co-incubated with fluorogenic substrates and their inhibitory potential (IC50) was determined. Assay conditions in terms of CYP450 protein concentration and time of incubation were standardized, enzyme kinetics parameters of each fluorescent probe substrate were estimated and IC50 values of inhibitors were determined and validated on different days to check reproducibility.
A 100 mM sodium phosphate buffer was prepared and adjusted to pH 7.4. In a separate falcon tube, a 2× enzyme/substrate (E/S) solution was prepared in phosphate buffer. The final concentration of CYP2D6 (CORNING®) and 7-amido-4-methyl coumaric acid (AMMC) was 10 nM and 4 μM, and CYP3A4 (CORNING®) and 7-benzyloxy-4-(trifluoromethyl) coumarin (BFC) was 20 nM and 40 μM, respectively. In a separate falcon tube, a 2×NADPH regenerating system (NRS) was prepared in phosphate buffer.
Both enzymatic assays were conducted in a 96-well microtiter plate (Black, CORNING® COSTAR®) with a final volume of 100 μL. Preparation of the plate began with the addition of 74 μL of the E/S in the first well, and 50 μL to all subsequent wells (from 2-11). […] A 1:3 serial dilution of the test compound was conducted by removing 25 μL from the first well and diluting it with the second and so forth until the tenth row. Final concentrations yielded a range from 200 μM-0.01 μM. Well no. 11 contained no inhibitor, and well no. 12 contained no enzyme. Both were used as controls for background fluorescence. The plate was incubated for 30 min at 37° C. After incubation, the reaction was initiated by the addition of 50 μL of the 2×NRS to each well.
Immediately (within 1 min) the fluorescence was measured using a microplate reader (BIOTEK® Synergy Neo2). […] Data was exported and analyzed using Graph Pad Prism 7. […] The IC50 value was derived after the data was fitted on a 10-point curve using a four-parameter logistic regression model.

[3] = biological target: T1, CXCR4; assay: cAMP assay in CXCR4-CHO-Glo cells (GloSensor, forskolin + SDF-1α); type: cell-based; set-up: expressed in transfected cells
Text: Materials, reagents, and instrument—Advanced DMEM (Gibco), trypsin EDTA (0.05%, phenol red), L-glutamine, HBSS buffer with and without Ca^2+/Mg^2+ (Gibco), antibiotic-antimycotic (Gibco), hygromycin B, and geneticin selective antibiotic (G418 sulfate) were purchased from Invitrogen. Forskolin (Tocris), SDF-1α (R&D Systems), HEPES (Sigma Aldrich), FBS (Atlanta Biologicals), D-luciferin (Gold Biotechnology), sterile 60 mm tissue culture dishes, and 96-well sterile tissue culture plates were purchased from Corning.
The assay targeted CXCR4 expressed in CHO-gloSensor cells. It monitored GPCR activation based on forskolin-stimulated cAMP production in cells. The assay used a genetically encoded biosensor with its cAMP binding domain fused to luciferase. Binding of cAMP to the cAMP binding domain changed the conformation of the biosensor, leading to the activation of luciferase. The intensity of the luciferase signal (light output) resulted from the oxidation of D-luciferin to oxyluciferin is proportional to the amount of cAMP produced in the cells.
The assay was performed in triplicate using live cells in 96-well tissue culture plates. Cells were pre-incubated in the dark at room temperature for one hour in the presence of D-luciferin. Bioluminescence was quantified before and after the agonist/antagonist addition. Stock solution of forskolin and SDF-1a, was prepared in Locke-Luc buffer. Stock solutions of the test compounds were prepared in DMSO (10 mM); they were diluted by Locke's buffer for use in the assay.
CHO-Glo cells, a cell line stably expressing the GloSensor cAMP biosensor (Promega), were transfected with cDNA encoding human CXCR4 in Pires-AcGFP1 (Clontech) and a stable cell line was isolated (CXCR4-CHO-Glo cells). The CXCR4-CHO-Glo cells were grown to confluency on 60 mm tissue culture dishes. After trypsinization, the cells were plated on 96-well plates and incubated overnight. The next day, culture media in each well was aspirated and replaced with 100 μL Locke's buffer containing 4 mM D-luciferin, followed by incubation in the dark for one hour. Before the addition of agonist/antagonist, each plate was read five times at 2 min intervals to obtain basal bioluminescence values from each well. The average of these five pre-readings was used to normalize each well's response to account for differences in GloSensor expression and cell density. After five pre-readings, cAMP formation was initiated with the addition of 50 μL solution of test compound (TC) in Locke Luc buffer containing forskoline and SDF-1α. […] Luminescence was measured immediately after the addition of the antagonist solution. The measurements were taken every two minutes for 30 minutes in kinetics mode after antagonist addition. IC50 values were calculated from the 4-parameter logistic equation using Prism GraphPad.

T1 sequence (P61073 whole entry): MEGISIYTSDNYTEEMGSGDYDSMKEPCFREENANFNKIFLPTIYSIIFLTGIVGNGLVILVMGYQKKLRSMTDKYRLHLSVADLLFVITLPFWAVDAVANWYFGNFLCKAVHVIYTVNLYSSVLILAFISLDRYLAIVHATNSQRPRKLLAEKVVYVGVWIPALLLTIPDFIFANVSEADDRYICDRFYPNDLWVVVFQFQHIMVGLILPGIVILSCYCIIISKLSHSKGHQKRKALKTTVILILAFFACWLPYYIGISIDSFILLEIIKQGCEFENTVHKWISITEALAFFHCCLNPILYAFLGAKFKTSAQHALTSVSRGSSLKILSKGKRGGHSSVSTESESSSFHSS

Row | Compound | pIC50 [1] | IC50 [2] | pIC50 [3]
1 | CN(C[C@H]1Cc2c(cccc2N2CC3COC2C3)CN1)[C@H]1CCCc2cccnc21 (stereo in doubt) [EMU-324, (S)—N—(((R)-5-((1S,4R)-2-oxa-6-azabicyclo[2.2.1]heptan-6-yl)-1,2,3,4-tetrahydroisoquinolin-3-yl)methyl)-N-methyl-5,6,7,8-tetrahydroquinolin-8-amine] | 7.51 | > 20 µM | 7.26
2 | CN1CCN(c2cccc3c2C[C@@H](CN(C)[C@H]2CCCc4cccnc42)NC3)C(=O)C1 [EMU-251, 4-methyl-1-((S)-3-((methyl((S)-5,6,7,8-tetrahydroquinolin-8-yl)amino)methyl)-1,2,3,4-tetrahydroisoquinolin-5-yl)piperazin-2-one] | 6.69 | > 50 µM | 6.61
3 | CCOC(=O)N1CCN(c2cccc3c2C[C@H](CN(C)[C@H]2CCCc4cccnc42)NC3)CC1 [EMU-261, ethyl 4-((R)-3-((methyl((S)-5,6,7,8-tetrahydroquinolin-8-yl)amino)methyl)-1,2,3,4-tetrahydroisoquinolin-5-yl)piperazine-1-carboxylate] | 6.00 | 4.47 µM | 8.43
4 | CC(=O)N1CCN(c2cccc3c2C[C@H](CN(C)[C@H]2CCCc4cccnc42)NC3)CC1 [EMU-262, 1-(4-((R)-3-((methyl((S)-5,6,7,8-tetrahydroquinolin-8-yl)amino)methyl)-1,2,3,4-tetrahydroisoquinolin-5-yl)piperazin-1-yl)ethan-1-one] | 7.25 | > 50 µM | 7.84

Now from value to compound:

Row | pIC50 [1] | IC50 [2] | pIC50 [3] | Compound
5 | 7.28 | 8.1 µM | 7.50 | CN(C[C@H]1Cc2c(cccc2N2CCNC(=O)C2)CN1)[C@H]1CCCc2cccnc21 [EMU-254, 4-((R)-3-((methyl((S)-5,6,7,8-tetrahydroquinolin-8-yl)amino)methyl)-1,2,3,4-tetrahydroisoquinolin-5-yl)piperazin-2-one]
6 | 6.65 | 43.1 µM | 7.16 | CN1CCN(c2cccc3c2C[C@H](CN(C)[C@H]2CCCc4cccnc42)NC3)CC1=O [EMU-255, 1-methyl-4-((R)-3-((methyl((S)-5,6,7,8-tetrahydroquinolin-8-yl)amino)methyl)-1,2,3,4-tetrahydroisoquinolin-5-yl)piperazin-2-one]
7 | 6.51 | 34.4 µM | 7.32 | CN(C[C@H]1Cc2c(cccc2N2CCN(S(C)(=O)=O)CC2)CN1)[C@H]1CCCc2cccnc21 [EMU-263, (S)—N-methyl-N—(((R)-5-(4-(methylsulfonyl)piperazin-1-yl)-1,2,3,4-tetrahydroisoquinolin-3-yl)methyl)-5,6,7,8-tetrahydroquinolin-8-amine]
8 | 7.89 |  | 7.54 | CN1CCN(c2cccc3c2CC(CN(C)[C@H]2CCOc4cccnc42)NC3)CC1 (stereo partly drawn) [EMU-320, (4S)—N-methyl-N-((5-(4-methylpiperazin-1-yl)-1,2,3,4-tetrahydroisoquinolin-3-yl)methyl)-3,4-dihydro-2H-pyrano[3,2-b]pyridin-4-amine]
9 | 8.36 | 4.1 µM | 8.21 | CN(C[C@H]1Cc2c(cccc2N2CCN3CCOC[C@H]3C2)CN1)[C@H]1CCCc2cccnc21 [EMU-343, (S)—N—(((R)-5-((R)-hexahydropyrazino[2,1-c][1,4]oxazin-8(1H)-yl)-1,2,3,4-tetrahydroisoquinolin-3-yl)methyl)-N-methyl-5,6,7,8-tetrahydroquinolin-8-amine]
